{
  "source": "patent USRE31181E",
  "about": "“Means and method for improving natural defenses against caries” (priority 1980, dated 1983)",
  "system": "oral bacteria",
  "test": "pH of glucose solution incubated with oral bacteria (salivary sediment) and test substance",
  "assay_type": "cell-based",
  "conditions": "for pH rising to (pH rise after the drop) / pH drop to (lowest pH reached): salivary sediment 16.7% (v/v), peptide 3.3 mM; for pH rising to (pH rise after the drop) / pH drop to (lowest pH reached) / pH: glucose 2.8 mM; for pH rising to (pH rise after the drop): measured through the fourth hour; for pH drop to (lowest pH reached): pH starts slightly above 7; for pH: substance 3.3 mM final, 37° C.",
  "description": "Experiments were performed in vitro using supernatant saliva. The saliva was obtained from random donors whose salivary secretions were paraffin block stimulated. The saliva donations were pooled before and after sediment removal.\nFour sets of three 10×75 mm test tubes were provided with 0.2 ml of 8.4 mM (millimolar) of aqueous glucose solution. Set I was provided with 0.2 ml of pooled supernatant saliva. Set II was provided with 0.2 ml of 9.9 mM of the peptide glycine-glycine-arginine. Set III was provided with 0.2 ml of 9.9 mM arginine. Set IV was provided with 0.2 ml of distilled water. Sequentially 0.2 ml of a 50:50 aqueous suspension of oral bacteria was added to each test tube. The concentration of the peptide in the combined composition was 3.3 mM. The prepared test tubes were kept at 37° C. in a water bath. pH readings were taken at 0 time when the bacteria were added and at 15, 30, 45, 60, 90, 120, 180 and 240 minutes.\nThe tests were carried out under the same conditions as Sets I-IV. The salivary sediment was present in an amount of 16.7% (v/v), glucose 2.8 mM and the peptide 3.3 mM in the final composition.\nDuplicate runs without peptide were run parallel to the others as a double check. […] Measurement continues through the fourth hour.",
  "key": {"[1]": {"conditions": "time 0 minutes (bacteria added)"}},
  "note": "Where a SMILES comes first, the peptide text is derived from it.",
  "data": [
    {"compound": "N=C(N)NCCC[C@H](N)C(=O)O.NCC(=O)O.NCC(=O)O", "note": "[Gly--Gly--Arg, glycine-glycine-arginine]", "values": [
      {"measurement": "pH rising to (pH rise after the drop)", "result": 7.5},
      {"measurement": "pH drop to (lowest pH reached)", "result": 5.5},
      {"measurement": "pH", "setting": "[1]", "result": 7.4},
      {"measurement": "pH", "setting": "time 15 minutes", "result": 6.8},
      {"measurement": "pH", "setting": "time 30 minutes", "result": 6.6},
      {"measurement": "pH", "setting": "time 45 minutes", "result": 6.4},
      {"measurement": "pH", "setting": "time 60 minutes", "result": 6.6},
      {"measurement": "pH", "setting": "time 90 minutes", "result": 6.6},
      {"measurement": "pH", "setting": "time 120 minutes", "result": 6.7},
      {"measurement": "pH", "setting": "time 180 minutes", "result": 7.2},
      {"measurement": "pH", "setting": "time 240 minutes", "result": 7.6}
    ]},
    {"compound": "N=C(N)NCCC[C@H](NC(=O)[C@H](CCCCN)NC(=O)CNC(=O)CN)C(=O)O", "note": "[Gly--Gly--Lys--Arg, H-glycine-glycine-lysine-arginine-OH] (H-GGKR-OH)", "values": [
      {"measurement": "pH rising to (pH rise after the drop)", "result": 8.4},
      {"measurement": "pH drop to (lowest pH reached)", "result": 6.4},
      {"measurement": "effectiveness as pH rise factor", "setting": "synthesized peptide", "result": "proven effective"}
    ]},
    {"compound": "N=C(N)NCCC[C@H](N)C(=O)O", "note": "[Set III, arginine, reference compound]", "values": [
      {"measurement": "pH", "setting": "[1]", "result": 7.3},
      {"measurement": "pH", "setting": "time 15 minutes", "result": 5.8},
      {"measurement": "pH", "setting": "time 30 minutes", "result": 5.4},
      {"measurement": "pH", "setting": "time 45 minutes", "result": 5.2},
      {"measurement": "pH", "setting": "time 60 minutes", "result": 4.9},
      {"measurement": "pH", "setting": "time 90 minutes", "result": 5.0},
      {"measurement": "pH", "setting": "time 120 minutes", "result": 5.0},
      {"measurement": "pH", "setting": "time 180 minutes", "result": 5.3},
      {"measurement": "pH", "setting": "time 240 minutes", "result": 5.8}
    ]}
  ]
}
